How the values were obtained:
windgrass [1] = test: Test Example 4: herbicidal effect by soil treatment (Table 19, symbol L); format: in vivo, windgrass (Apera spica-venti)
How it was run: (§1)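 Soil-surface application: an emulsion agent diluted with water to the predetermined dose is sprayed uniformly over seeds lying under roughly 1.5 cm of sterilized diluvial soil. Boxes stay in a greenhouse at 25° C. to 30° C. Three weeks later, each species is graded on previously defined criteria.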

barnyard grass [2] = test: Test Example 5: herbicidal effect by foliage application, plastic box (Table 20, symbol H); format: in vivo, barnyard grass (Echinochloa crus-galli); details: foliage application, 320 g/ha
How it was run: (§2)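 Sow seeds spot-wise in sterilized diluvial soil; cover with ~1.5 cm soil. Grow 14 days in greenhouse, 25° C. to 30° C. Spray foliage with emulsion diluted to predetermined amount. Rate effect after 3 weeks.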

oval-leafed pondweed = test: Test Example 2: herbicidal activity, application during weed generation under submerged conditions (Table 17, symbol C); format: in vivo, oval-leafed pondweed (Monochoria vaginalis); details: AAH 320 g/ha; application during weed generation, submerged conditions
How it was run: (§3)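 Mixed weed seedlings in alluvial soil under a 4 cm water layer, greenhouse-grown at 25–30° C. Compound given as a diluted emulsion into the floodwater at the 1–2 leaf stage; response graded after three weeks.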

windgrass [3] = test: Test Example 5: herbicidal effect by foliage application, plastic box (Table 20, symbol L); format: in vivo, windgrass (Apera spica-venti); details: foliage application, 320 g/ha
How it was run: as §2

blackgrass [4] = test: Test Example 5: herbicidal effect by foliage application, plastic box (Table 20, symbol J); format: in vivo, blackgrass (Alopecurus myosuroides); details: foliage application, 320 g/ha
How it was run: as §2

persian speedwell [5] = test: Test Example 4: herbicidal effect by soil treatment (Table 19, symbol R); format: in vivo, Persian speedwell (Veronica persica)
How it was run: as §1

southern crabgrass [6] = test: Test Example 5: herbicidal effect by foliage application, plastic box (Table 20, symbol F); format: in vivo, southern crabgrass (Digitaria ciliaris); details: foliage application, 320 g/ha
How it was run: as §2

Italian ryegrass [7] = test: Test Example 5: herbicidal effect by foliage application, plastic box (Table 20, symbol K); format: in vivo, Italian ryegrass (Lolium multiflorum); details: foliage application, 320 g/ha
How it was run: as §2

redroot pigweed [8] = test: Test Example 5: herbicidal effect by foliage application, plastic box (Table 20, symbol N); format: in vivo, redroot pigweed (Amaranthus retroflexus); details: foliage application, 320 g/ha, three weeks after application
How it was run: as §2

wild oat [9] = test: Test Example 5: herbicidal effect by foliage application, plastic box (Table 20, symbol I); format: in vivo, wild oat (Avena fatua); details: foliage application, 320 g/ha
How it was run: as §2

barnyard grass [10] = test: Test Example 3: herbicidal effect by foliage application, Wagner pot (Table 18, symbol H); format: in vivo, barnyard grass (Echinochloa crus-galli); details: 320 g/ha
How it was run: (§4)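 Plants were sown in alluvial soil held under 0.1–0.5 cm standing water and grown 14 days in a greenhouse at 25–30 °C. An emulsifiable formulation, water-diluted to the set dose, was then sprayed onto the foliage, and effects were scored three weeks later using previously defined criteria.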

Italian ryegrass [11] = test: Test Example 4: herbicidal effect by soil treatment (Table 19, symbol K); format: in vivo, Italian ryegrass (Lolium multiflorum)
How it was run: as §1

Chinese sprangletop = test: Test Example 3: herbicidal effect by foliage application, Wagner pot (Table 18, symbol D); format: in vivo, chinese sprangletop (Leptochloa chinensis); details: 320 g/ha
How it was run: as §4

chickweed [12] = test: Test Example 4: herbicidal effect by soil treatment (Table 19, symbol P); format: in vivo, common chickweed (Stellaria media)
How it was run: as §1

Japanese bulrush = test: Test Example 2: herbicidal activity, application during weed generation under submerged conditions (Table 17, symbol B); format: in vivo, Japanese bulrush (Schoenoplectus juncoides); details: AAH 320 g/ha; application during weed generation, submerged conditions
How it was run: as §3

blackgrass [13] = test: Test Example 4: herbicidal effect by soil treatment (Table 19, symbol J); format: in vivo, blackgrass (Alopecurus myosuroides)
How it was run: as §1

chickweed [14] = test: Test Example 5: herbicidal effect by foliage application, plastic box (Table 20, symbol P); format: in vivo, common chickweed (Stellaria media); details: foliage application, 320 g/ha, three weeks after application
How it was run: as §2

late watergrass = test: Test Example 2: herbicidal activity, application during weed generation under submerged conditions (Table 17, symbol A); format: in vivo, late watergrass (Echinochloa oryzicola); details: AAH 320 g/ha; application during weed generation, submerged conditions
How it was run: as §3

velvetleaf [15] = test: Test Example 5: herbicidal effect by foliage application, plastic box (Table 20, symbol M); format: in vivo, velvetleaf (Abutilon theophrasti); details: foliage application, 320 g/ha
How it was run: as §2

persian speedwell [16] = test: Test Example 5: herbicidal effect by foliage application, plastic box (Table 20, symbol R); format: in vivo, Persian speedwell (Veronica persica); details: foliage application, 320 g/ha
How it was run: as §2

rice flat sedge = test: Test Example 3: herbicidal effect by foliage application, Wagner pot (Table 18, symbol E); format: in vivo, rice flat sedge (Cyperus iria); details: 320 g/ha
How it was run: as §4

green foxtail [17] = test: Test Example 5: herbicidal effect by foliage application, plastic box (Table 20, symbol G); format: in vivo, green foxtail (Setaria viridis); details: foliage application, 320 g/ha
How it was run: as §2

wild oat [18] = test: Test Example 4: herbicidal effect by soil treatment (Table 19, symbol I); format: in vivo, wild oat (Avena fatua)
How it was run: as §1

lambsquarters [19] = test: Test Example 5: herbicidal effect by foliage application, plastic box (Table 20, symbol O); format: in vivo, lambsquarters (Chenopodium album); details: foliage application, 320 g/ha
How it was run: as §2

barnyard grass [20] = test: Test Example 4: herbicidal effect by soil treatment (Table 19, symbol H); format: in vivo, barnyard grass (Echinochloa crus-galli); details: 320 g/ha
How it was run: as §1

lambsquarters [21] = test: Test Example 4: herbicidal effect by soil treatment (Table 19, symbol O); format: in vivo, lambsquarters (Chenopodium album); details: 320 g/ha
How it was run: as §1

southern crabgrass [22] = test: Test Example 4: herbicidal effect by soil treatment (Table 19, symbol F); format: in vivo, southern crabgrass (Digitaria ciliaris); details: 320 g/ha
How it was run: as §1

redroot pigweed [23] = test: Test Example 4: herbicidal effect by soil treatment (Table 19, symbol N); format: in vivo, redroot pigweed (Amaranthus retroflexus); details: 320 g/ha
How it was run: as §1

velvetleaf [24] = test: Test Example 4: herbicidal effect by soil treatment (Table 19, symbol M); format: in vivo, velvetleaf (Abutilon theophrasti); details: 320 g/ha
How it was run: as §1

green foxtail [25] = test: Test Example 4: herbicidal effect by soil treatment (Table 19, symbol G); format: in vivo, green foxtail (Setaria viridis); details: 320 g/ha
How it was run: as §1

[26] = amount of applied herbicide 320 g/ha

Structure (SMILES): CCCC(=O)Oc1c(C)nn(C)c(=O)c1-c1c(-c2ccc(OC(F)(F)F)cc2)sc2ccccc12 [1-032]
- herbicidal effect rating, L: windgrass (windgrass [1]; [26]): 0 (Herbicidal rate of 5% or less (almost no effect))
- herbicidal effect grade, H: barnyard grass (barnyard grass [2]; three weeks after application): 3 (Herbicidal rate of 40% or more and less than 70%)
- herbicidal effect rating, C: oval-leafed pondweed (oval-leafed pondweed): 3 (Herbicidal rate of 40% or more and less than 70%)
- herbicidal effect grade, L: windgrass (windgrass [3]; three weeks after application): 0 (Herbicidal rate of 5% or less (almost no effect))
- herbicidal effect grade, J: blackgrass (blackgrass [4]; three weeks after application): 2 (Herbicidal rate of 20% or more and less than 40%)
- herbicidal effect rating, R: persian speedwell (persian speedwell [5]; [26]): 5 (Herbicidal rate of 90% or more (almost completely withered))
- herbicidal effect grade, F: southern crabgrass (southern crabgrass [6]; three weeks after application): 0 (Herbicidal rate of 5% or less (almost no effect))
- herbicidal effect grade, K: Italian ryegrass (Italian ryegrass [7]; three weeks after application): 3 (Herbicidal rate of 40% or more and less than 70%)
- herbicidal effect grade, N: redroot pigweed (redroot pigweed [8]): 4 (Herbicidal rate of 70% or more and less than 90%)
- herbicidal effect grade, I: wild oat (wild oat [9]; three weeks after application): 0 (Herbicidal rate of 5% or less (almost no effect))
- herbicidal effect on H (barnyard grass), rating 0-5 (barnyard grass [10]): 4 (Herbicidal rate of 70% or more and less than 90%)
- herbicidal effect rating, K: Italian ryegrass (Italian ryegrass [11]; [26]): 4 (Herbicidal rate of 70% or more and less than 90%)
- herbicidal effect on D (Chinese sprangletop), rating 0-5 (Chinese sprangletop): 0 (Herbicidal rate of 5% or less (almost no effect))
- herbicidal effect rating, P: chickweed (chickweed [12]; [26]): 3 (Herbicidal rate of 40% or more and less than 70%)
- herbicidal effect rating, B: Japanese bulrush (Japanese bulrush): 1 (Herbicidal rate of 5% or more and less than 20%)
- herbicidal effect rating, J: blackgrass (blackgrass [13]; [26]): 0 (Herbicidal rate of 5% or less (almost no effect))
- herbicidal effect grade, P: chickweed (chickweed [14]): 5 (Herbicidal rate of 90% or more (almost completely withered))
- herbicidal effect rating, A: late watergrass (late watergrass): 0 (Herbicidal rate of 5% or less (almost no effect))
- herbicidal effect grade, M: velvetleaf (velvetleaf [15]; three weeks after application): 5 (Herbicidal rate of 90% or more (almost completely withered))
- herbicidal effect grade, R: persian speedwell (persian speedwell [16]; three weeks after application): 5 (Herbicidal rate of 90% or more (almost completely withered))
- herbicidal effect on E (rice flat sedge), rating 0-5 (rice flat sedge): 5 (Herbicidal rate of 90% or more (almost completely withered))
- herbicidal effect grade, G: green foxtail (green foxtail [17]; three weeks after application): 4 (Herbicidal rate of 70% or more and less than 90%)
- herbicidal effect rating, I: wild oat (wild oat [18]; [26]): 0 (Herbicidal rate of 5% or less (almost no effect))
- herbicidal effect grade, O: lambsquarters (lambsquarters [19]; three weeks after application): 5 (Herbicidal rate of 90% or more (almost completely withered))

Structure (SMILES): COCCOCOc1c(C)nn(C)c(=O)c1-c1c(-c2ccc(C(C)C)cc2)sc2ccc(F)cc12 [2-015]
- herbicidal effect rating, L: windgrass (windgrass [1]; 320 g/ha): 0 (Herbicidal rate of 5% or less (almost no effect))
- effect on barnyard grass (H) (barnyard grass [2]; 3 weeks after application): 3 (Herbicidal rate of 40% or more and less than 70%)
- herbicidal effect rating, H: barnyard grass (barnyard grass [20]): 0 (Herbicidal rate of 5% or less (almost no effect))
- herbicidal effect rating, C: oval-leafed pondweed (oval-leafed pondweed): 0 (Herbicidal rate of 5% or less (almost no effect))
- effect on windgrass (L) (windgrass [3]; 3 weeks after application): 4 (Herbicidal rate of 70% or more and less than 90%)
- effect on blackgrass (J) (blackgrass [4]; 3 weeks after application): 0 (Herbicidal rate of 5% or less (almost no effect))
- herbicidal effect rating, R: persian speedwell (persian speedwell [5]; 320 g/ha): 4 (Herbicidal rate of 70% or more and less than 90%)
- effect on southern crabgrass (F) (southern crabgrass [6]; 3 weeks after application): 1 (Herbicidal rate of 5% or more and less than 20%)
- herbicidal effect rating, O: lambsquarters (lambsquarters [21]): 2 (Herbicidal rate of 20% or more and less than 40%)
- effect on Italian ryegrass (K) (Italian ryegrass [7]; 3 weeks after application): 0 (Herbicidal rate of 5% or less (almost no effect))
- effect on wild oat (I) (wild oat [9]; 3 weeks after application): 0 (Herbicidal rate of 5% or less (almost no effect))
- herbicidal effect on H (barnyard grass), rating 0-5 (barnyard grass [10]): 5 (Herbicidal rate of 90% or more (almost completely withered))
- herbicidal effect rating, K: Italian ryegrass (Italian ryegrass [11]; 320 g/ha): 0 (Herbicidal rate of 5% or less (almost no effect))
- herbicidal effect on D (Chinese sprangletop), rating 0-5 (Chinese sprangletop): 5 (Herbicidal rate of 90% or more (almost completely withered))
- herbicidal effect rating, P: chickweed (chickweed [12]; 320 g/ha): 0 (Herbicidal rate of 5% or less (almost no effect))
- herbicidal effect rating, F: southern crabgrass (southern crabgrass [22]): 0 (Herbicidal rate of 5% or less (almost no effect))
- herbicidal effect rating, N: redroot pigweed (redroot pigweed [23]): 5 (Herbicidal rate of 90% or more (almost completely withered))
- herbicidal effect rating, B: Japanese bulrush (Japanese bulrush): 0 (Herbicidal rate of 5% or less (almost no effect))
- herbicidal effect rating, J: blackgrass (blackgrass [13]; 320 g/ha): 0 (Herbicidal rate of 5% or less (almost no effect))
- herbicidal effect rating, A: late watergrass (late watergrass): 4 (Herbicidal rate of 70% or more and less than 90%)
- effect on velvetleaf (M) (velvetleaf [15]; 3 weeks after application): 5 (Herbicidal rate of 90% or more (almost completely withered))
- effect on persian speedwell (R) (persian speedwell [16]; 3 weeks after application): 5 (Herbicidal rate of 90% or more (almost completely withered))
- herbicidal effect on E (rice flat sedge), rating 0-5 (rice flat sedge): 5 (Herbicidal rate of 90% or more (almost completely withered))
- herbicidal effect rating, M: velvetleaf (velvetleaf [24]): 0 (Herbicidal rate of 5% or less (almost no effect))
- herbicidal effect rating, G: green foxtail (green foxtail [25]): 0 (Herbicidal rate of 5% or less (almost no effect))
- effect on green foxtail (G) (green foxtail [17]; 3 weeks after application): 0 (Herbicidal rate of 5% or less (almost no effect))
- herbicidal effect rating, I: wild oat (wild oat [18]; 320 g/ha): 0 (Herbicidal rate of 5% or less (almost no effect))
- effect on lambsquarters (O) (lambsquarters [19]; 3 weeks after application): 5 (Herbicidal rate of 90% or more (almost completely withered))
